From US9206129B2, “Agent for treatment of eye diseases” (Daito Chemix Corporation, priority 2010, dated 2015)
Counter-ions that a name gives are not always drawn.

Tests used:
[1] = test system: DBA/2J mice; assay: Intraocular pressure in DBA/2J mice (TonoLab tonometer); format: in vivo, mouse; conditions: 50 mg/kg/day orally
Protocol: As a model of secondary angle-closure glaucoma, the DBA/2J mice (Anderson, M. G. et al; BMC Genetics (2001)) were employed. The mice were administered orally with 50 mg/kg/day of the compound of Synthetic Example 32 or 53 (Compound 32 or 53, respectively) daily after two months of age. The tomographs of retinae (n=22 to 32 eyes) were obtained in the 6, 7, 8, 9 and 10-month-old mice with the optical coherence tomography (OCT) (Multiline OCT, Heidelberg Engineering) (FIGS. 1 and 2: The OCT images of the retinae of the 8-month-old mice, FIG. 3: The evaluation of the optic nerve cupping in the 7 to 10-month-old mice). The mice in the control group were administered orally with the physiological saline. The eyeballs were enucleated at 10 months of age, and retinae were observed after hematoxylin-eosin (HE) staining (FIG. 4: The micrographs of retinae of the […] mice after HE staining). The thickness of the inner retinal layers and the nerve fiber layers was determined from the OCT images (FIG. 5: The thickness of the nerve fiber layers of the 7-month-old mice; FIG. 6: The thickness of the inner retinal layers of the 8-month-old mice; FIG. 7: The time course of the thickness of the inner retinal layers). The thickness of the inner retinal layer is a sum of the thickness of the nerve fiber and ganglion neuron layer and the inner plexiform layer.
Besides, the intraocular pressure was measured with TonoLab (M. E. Technica) tonometer under general anesthesia monthly from 2 months of age. The mean intraocular pressure at 4, 5, 6, 7 and 8 months of age was 13.6, 14.0, 11.3, 16.3 and 12.8 mmHg in the control group administered with the physiological saline, 13.0, 15.6, 12.0, 12.3 and 14.4 mmHg in the group administered with Compound 32, 14.6, 16.0, 12.8, 13.0 and 14.4 mmHg in the group administered with Compound 53.

[2] = test system: rd10 mice; assay: rd10 mice, model of retinitis pigmentosa: OCT, electroretinogram, HE-stained retinae; format: in vivo, mouse; conditions: 33-day-old rd10 mice, 50 mg/kg/day intraperitoneally
Protocol: As a model of retinitis pigmentosa, the rd10 mice (B6.CXB1-Pde6b^rd10/J (purchased from Jackson Laboratory (Bar Harbor, Me.), Chang B. et al; Vision Res (2007)) were employed. In the mouse model, the rod photoreceptors are completely disappeared within 2 months after birth. The mice were administered intraperitoneally with 50 mg/kg/day of the compound of Synthetic Example 32 or 53 (Compound 32 or 53, respectively) daily from 7 days of age. The tomographs of the retinae were obtained in the 21, 25, 29 and 33-day-old mice with the optical coherence tomography (OCT) (FIGS. 15 and 17: The OCT images of the mice administered with Compound 32 at 25 and 29 days of age; FIGS. 19 and 21: The OCT images of the mice administered with Compound 53 at 25 and 29 days of age). The 21-, 25-, 29- and 33-day-old mice were subjected to dark adaptation and given 3.0 cd/s/m^2 of photic stimulations via a LED-type corneal-contact electrode (Mayo) by LS-W (Mayo). The electroretinogram (ERG) was recorded and analyzed with PowerLab 2/25 (AD Instruments, New South Wales, Australia) to measure the b-wave amplitudes (N=27-37 eyes) (FIGS. 16, 18, 24: The ERG of the 25-, 29- and 33-day-old mice administered with Compound 32; FIGS. 20, 22, 26: The ERG of the 25-, 29- and 33-day-old mice administered with Compound 53). The mice in the control group were administered orally with the physiological saline. […]

[3] = molecular target: Mouse VCP (Mus musculus (Mouse), UniProt Q01853); assay: VCP ATPase inhibitory activity; format: biochemical; conditions: ATPase activity of purified VCP, 100 μM [γ-32P]ATP, 37° C., 10 minutes
Mouse VCP, sequence (Q01853 whole entry): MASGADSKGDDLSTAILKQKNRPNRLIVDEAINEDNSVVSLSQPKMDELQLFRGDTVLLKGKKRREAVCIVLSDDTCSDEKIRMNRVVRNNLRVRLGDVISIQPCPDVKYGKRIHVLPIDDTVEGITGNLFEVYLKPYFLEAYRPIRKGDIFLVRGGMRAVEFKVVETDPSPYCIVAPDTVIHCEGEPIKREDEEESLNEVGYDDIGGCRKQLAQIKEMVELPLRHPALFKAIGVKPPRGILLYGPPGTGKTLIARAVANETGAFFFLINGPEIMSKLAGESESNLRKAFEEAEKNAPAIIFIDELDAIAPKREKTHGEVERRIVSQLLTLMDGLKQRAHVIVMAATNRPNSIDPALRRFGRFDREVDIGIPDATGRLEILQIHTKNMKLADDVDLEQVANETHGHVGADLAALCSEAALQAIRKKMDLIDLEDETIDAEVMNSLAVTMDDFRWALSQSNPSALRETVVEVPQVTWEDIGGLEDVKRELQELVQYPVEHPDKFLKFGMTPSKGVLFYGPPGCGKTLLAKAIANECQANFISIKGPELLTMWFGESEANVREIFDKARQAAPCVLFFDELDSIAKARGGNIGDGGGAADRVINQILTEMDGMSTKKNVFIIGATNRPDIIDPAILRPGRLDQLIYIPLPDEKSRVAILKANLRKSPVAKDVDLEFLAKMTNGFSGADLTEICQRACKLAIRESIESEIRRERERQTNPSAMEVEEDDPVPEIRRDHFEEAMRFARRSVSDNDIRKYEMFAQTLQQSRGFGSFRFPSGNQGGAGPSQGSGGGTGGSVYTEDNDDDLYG
Protocol: Mouse VCP cDNA (the amino acid sequence is completely identical among mouse, rat and human) is added with a DNA sequence corresponding to a histidine tag at the amino-terminal, subcloned into a baculovirus vector pVL1392 (BD Bioscience), and expressed in Sf-9 insect cells. The protein is purified with a nickel column. After the purification the concentration of the protein is adjusted to […] and the protein is stored in a solution containing 50 mM TrisCl pH 8.0, 5 mM EDTA, 10% glycerol, and 15 mM DTT at 4° C. […] The enzyme reaction is stopped with addition of 200 μL of an ice-cold solution containing 7% TCA and 1 mM K2HPO4. […] The reaction tube is centrifuged for 5 minutes at 20,000 g to separate the aqueous layer and the organic layer, 200 μL of the organic layer is taken, and the beta ray radiated from the liberated phosphate is quantified with liquid scintillation counter. By measuring the ATPase activity in the presence of the test substance at various concentrations, ATPase inhibitory activity of the test substance is measured. […]
The ATPase activity was determined as follows. […]
By measuring the ATPase activity in the presence of the test substance at various concentrations, ATPase inhibitory activity of the test substance was measured. […]

Compound | mean intraocular pressure ([1]; 4 months of age) [mmHg] | mean intraocular pressure ([1]; 5 months of age) [mmHg] | mean intraocular pressure ([1]; 6 months of age) [mmHg] | mean intraocular pressure ([1]; 7 months of age) [mmHg] | mean intraocular pressure ([1]; 8 months of age) [mmHg] | layers of the photoreceptor cells in the retinal section [2] [layers] | IC50 [3] [nM]
CCCCOc1c(C=O)cc(C)cc1-c1ccc(/N=N/c2cc(S(=O)(=O)[O-])c3ccccc3c2N)cn1.[Na+] [Example 53, 4-amino-3-[6-(3-formyl-2-butoxy-5-methylphenyl)pyridine-3-ylazo]naphthalene-1-sulfonic acid sodium salt] | 14.6 | 16.0 | 12.8 | 13.0 | 14.4 | 4 to 5 | 
Nc1c(/N=N/c2ccc(-c3ccccc3OCCCC(=O)O)nc2)cc(S(=O)(=O)O)c2ccccc12 [Example 43, 4-{2-[5-(1-amino-4-sulfonaphthalene-2-ylazo)pyridine-2-yl]phenoxy}butyric acid disodium salt] |  |  |  |  |  |  | 378
Cc1cc(F)ccc1-c1ccc(/N=N/c2cc(S(=O)(=O)[O-])c3ccccc3c2N)cn1.[Na+] [Example 32, 4-amino-3-[6-(4-fluoro-2-methylphenyl)pyridine-3-ylazo]naphthalene-1-sulfonic acid sodium salt] | 13.0 | 15.6 | 12.0 | 12.3 | 14.4 | 4 to 5 | 
